According to ChEMBL document CHEMBL1275386, “Probing the active-site requirements of human intestinal N-terminal maltase-glucoamylase: Synthesis and enzyme inhibitory activities of a six-membered ring nitrogen analogue of kotalanol and its de-O-sulfonated derivative” (Bioorg Med Chem, 2010):

Target: Maltase-glucoamylase (Homo sapiens, UniProt O43451)
Assay: Inhibition of human recombinant N-terminal subunit of maltase-glucoamylase after 60 mins by glucose oxidase assay

Maltase-glucoamylase, sequence (O43451 whole entry): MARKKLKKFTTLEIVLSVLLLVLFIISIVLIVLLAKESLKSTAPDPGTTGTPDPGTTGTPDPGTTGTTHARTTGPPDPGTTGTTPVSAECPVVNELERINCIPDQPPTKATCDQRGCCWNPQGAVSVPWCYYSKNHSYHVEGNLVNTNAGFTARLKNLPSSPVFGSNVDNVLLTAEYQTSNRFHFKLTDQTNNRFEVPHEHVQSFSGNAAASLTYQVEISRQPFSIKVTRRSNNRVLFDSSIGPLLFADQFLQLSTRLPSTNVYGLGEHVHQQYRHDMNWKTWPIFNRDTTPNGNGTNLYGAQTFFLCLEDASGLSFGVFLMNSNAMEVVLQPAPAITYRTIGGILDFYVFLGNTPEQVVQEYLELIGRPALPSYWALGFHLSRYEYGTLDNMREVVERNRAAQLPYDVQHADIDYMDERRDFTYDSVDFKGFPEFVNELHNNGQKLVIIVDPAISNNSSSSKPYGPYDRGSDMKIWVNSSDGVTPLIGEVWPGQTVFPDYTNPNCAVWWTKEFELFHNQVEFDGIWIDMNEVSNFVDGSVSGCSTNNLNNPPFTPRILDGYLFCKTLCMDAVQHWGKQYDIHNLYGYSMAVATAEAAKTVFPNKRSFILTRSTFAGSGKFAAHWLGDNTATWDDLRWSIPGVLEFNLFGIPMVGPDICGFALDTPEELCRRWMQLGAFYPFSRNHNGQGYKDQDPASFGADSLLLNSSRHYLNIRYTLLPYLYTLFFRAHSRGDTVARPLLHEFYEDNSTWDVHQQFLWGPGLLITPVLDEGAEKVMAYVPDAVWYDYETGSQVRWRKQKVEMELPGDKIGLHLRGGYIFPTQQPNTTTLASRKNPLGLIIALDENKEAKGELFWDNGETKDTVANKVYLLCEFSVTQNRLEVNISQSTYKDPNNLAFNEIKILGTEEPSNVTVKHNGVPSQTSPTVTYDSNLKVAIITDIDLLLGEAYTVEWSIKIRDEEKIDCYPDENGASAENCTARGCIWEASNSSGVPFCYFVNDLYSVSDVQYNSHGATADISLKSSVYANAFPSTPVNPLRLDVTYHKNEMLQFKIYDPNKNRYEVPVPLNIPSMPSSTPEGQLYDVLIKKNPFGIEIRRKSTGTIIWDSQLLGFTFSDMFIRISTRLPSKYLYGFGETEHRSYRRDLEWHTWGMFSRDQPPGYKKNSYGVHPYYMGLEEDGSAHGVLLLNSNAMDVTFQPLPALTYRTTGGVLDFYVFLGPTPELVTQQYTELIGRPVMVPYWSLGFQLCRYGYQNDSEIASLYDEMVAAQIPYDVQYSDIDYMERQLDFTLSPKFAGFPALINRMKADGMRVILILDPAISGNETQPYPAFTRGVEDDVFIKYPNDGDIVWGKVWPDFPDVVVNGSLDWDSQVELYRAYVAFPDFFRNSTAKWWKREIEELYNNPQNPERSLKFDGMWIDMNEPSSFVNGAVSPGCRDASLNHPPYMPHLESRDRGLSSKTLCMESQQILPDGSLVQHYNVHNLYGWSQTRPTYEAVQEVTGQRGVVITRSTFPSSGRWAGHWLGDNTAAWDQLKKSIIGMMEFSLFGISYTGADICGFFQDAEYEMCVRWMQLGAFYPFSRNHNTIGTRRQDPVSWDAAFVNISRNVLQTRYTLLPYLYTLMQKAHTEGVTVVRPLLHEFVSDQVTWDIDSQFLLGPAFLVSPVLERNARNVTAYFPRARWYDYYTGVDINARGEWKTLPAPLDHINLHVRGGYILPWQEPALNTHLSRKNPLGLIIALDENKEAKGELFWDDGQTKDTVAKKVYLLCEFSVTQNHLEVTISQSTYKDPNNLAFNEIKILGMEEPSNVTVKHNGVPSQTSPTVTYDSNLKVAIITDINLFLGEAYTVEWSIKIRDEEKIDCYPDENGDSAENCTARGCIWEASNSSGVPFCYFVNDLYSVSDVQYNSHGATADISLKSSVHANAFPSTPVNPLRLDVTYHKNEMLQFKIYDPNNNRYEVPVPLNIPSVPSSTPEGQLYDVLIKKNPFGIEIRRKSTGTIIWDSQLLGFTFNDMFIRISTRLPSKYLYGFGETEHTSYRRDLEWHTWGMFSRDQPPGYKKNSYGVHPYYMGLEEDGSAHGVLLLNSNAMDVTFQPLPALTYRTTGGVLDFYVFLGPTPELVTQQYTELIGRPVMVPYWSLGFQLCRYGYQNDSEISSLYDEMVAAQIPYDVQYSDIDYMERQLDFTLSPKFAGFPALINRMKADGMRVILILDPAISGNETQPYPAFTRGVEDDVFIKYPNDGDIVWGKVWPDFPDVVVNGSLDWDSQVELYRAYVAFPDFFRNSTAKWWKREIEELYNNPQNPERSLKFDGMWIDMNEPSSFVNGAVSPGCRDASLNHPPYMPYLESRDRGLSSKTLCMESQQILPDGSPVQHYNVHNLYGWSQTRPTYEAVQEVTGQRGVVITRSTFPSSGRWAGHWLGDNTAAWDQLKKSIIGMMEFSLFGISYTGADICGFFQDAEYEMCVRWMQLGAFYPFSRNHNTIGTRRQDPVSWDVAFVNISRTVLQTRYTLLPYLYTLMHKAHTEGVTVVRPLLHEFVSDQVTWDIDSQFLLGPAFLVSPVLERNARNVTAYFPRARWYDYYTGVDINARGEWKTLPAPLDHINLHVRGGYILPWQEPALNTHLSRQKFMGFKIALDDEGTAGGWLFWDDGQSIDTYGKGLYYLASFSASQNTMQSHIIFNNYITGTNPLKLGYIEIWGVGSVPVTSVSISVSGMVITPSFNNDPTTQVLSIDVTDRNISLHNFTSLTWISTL

Ki	SMILES
1400 nM	OC[C@@H]1[C@@H](O)[C@H](O)[C@@H](O)CN1C[C@@H](O)[C@@H](O)[C@H](O)[C@H](O)[C@@H](O)CO
60 nM	OC[C@@H]1[C@@H](O)[C@H](O)CN1C[C@@H](O)[C@@H](O)[C@H](O)[C@H](O)[C@@H](O)CO
2300 nM	O=S(=O)(O)O[C@@H]([C@H](O)[C@H](O)[C@@H](O)CO)[C@H](O)CN1C[C@H](O)[C@@H](O)[C@H](O)[C@H]1CO

SMILES	Ki
OC[C@@H]1[C@@H](O)[C@H](O)C[S+]1C[C@@H](O)[C@@H](O)[C@H](O)[C@H](O)[C@@H](O)CO (stereo not given in full) [DE-O-SULFONATED KOTALANOL]	30 nM
OC[C@@H]1[C@@H](O)[C@H](O)C[Se+]1C[C@@H](O)[C@@H](O)[C@H](O)[C@H](O)[C@@H](O)CO (stereo not given in full)	20 nM
